Results reported in patent publication US8653049B2, “Normuramyl glycopeptide compounds” (priority 2008, dated 2014).
Entries after “also recorded” stand apart in the source; their conditions may differ.

Tests used:
[1] = tested on: myelin basic protein induced EAE; assay: Experimental allergic encephalomyelitis (EAE), Th1 adjuvant activity; assay type: in vivo, guinea pigs; conditions: guinea pigs sensitized with bovine MBP in IFA + compound; FIG. 31
[2] = rabbits, liposomal preparations s.c. 100 nmol/kg, 3 rabbits per group; passes if below 1.1° C.
Protocol: The test was conducted in an authorised laboratory, ITEST plus s.r.o., Bilé Vchýnice 10, 533 13 Vápno u Prelouce, Czech Republic, according to guide-lines CL 2005.
Rabbits (New Zeeland albino, 4-6 kg, 3 animals per group) were used for testing.
Liposomal preparations of muramyl glycopeptide derivatives were administered s.c. (100 nmol/kg). Empty liposomes were used as negative control and the liposomal as well as the free form of muramyl dipeptide (MDP) (25 μg/kg, corresponding to 50.7 nmol/kg) served as positive control. Temperature was measured in 1, 2, 3, 4,6 and 24 hour intervals.
Empty liposomes were used as negative control; and liposomal as well as free muramyl dipeptide (MDP) (50.7 nmol/kg) served as positive control. B30-norAbu-MDP (MT01, structure on page 5) served as additional control. Temperature was measured in 1, 2, 3, 4, 6 and 24 h intervals. The preparation passed the test if the Sum of ΔTmax remained below 1.1° C. (3 rabbits per group)

[3] = tested on: Salmonella enteritidis; assay: Stimulation of innate immunity against Salmonella Enteritidis; conditions: for protective effect / survival rate in S. Enteritidis infection: 0 or 1 case of death by day 12; for Day 6 Intest.: clear/infected/dead / Day 6 Liver: clear/infected/dead / Day 6 Lungs: clear/infected/dead / Day 6 Spleen: clear/infected/dead / Day 12 Intest.: clear/infected/dead / Day 12 Liver: clear/infected/dead / Day 12 Lungs: clear/infected/dead / Day 12 Spleen: clear/infected/dead: liposomal, 20 nmol per dose p.o. 72 and 24 h before infection (LD50), 5 mice
[4] = tested on: IFN-γ production in splenocytes stimulated by rHSP90; assay: Proteoliposome vaccine against C. albicans hsp90: cellular response (IFN-γ in splenocytes stimulated by rHSP90); assay type: in vivo, BALB/c mice; conditions: Experiment 12.3; liposomal compound (5%) + Ni-HSP90, day 20; FIG. 14
Protocol: (§1) Proteoliposomes were prepared by coupling recombinant hsp90 antigen (r-hsp90, 6×HISTag) via a metal chelating lipid to liposomes containing muramyl glycopeptide derivatives as adjuvant component. BALB/c […] mice 4 to 5 weeks old (female 20±2 g, 5 animal per group) were immunized by the intradermal route either with 20 μg of free or liposomal r-hsp90 (volume of 60 μl) either with or without L18-norAbu-MDP and boosted 21 days later by the same composition of experimental vaccine. FCA was used as positive control r-hsp90. Liposomal vaccine composition 20 μg of rHSP90 antigen, 5% metallochelating lipid, 5% particular MT analogue, 90% phospolipids.
Production of INF-γ was mesured by standard ELISPOT assay (R&D, USA). Immunised mice were sacrified 4 weeks after booster imunisation and splenocytes were isolated, and stimulated by r-hsp90 (50 μg/ml) and spots were counted.
Proteoliposomes with muramyl glycopeptide derivatives were prepared as described above. Experimental conditions were as for Experiment 12.2.
Cell mediated immune response against rHSP90 antigen formulated in liposomal experimental vaccine was tested at day 20 (6 days after booster). Mice were sacrificed, splenocytes were purified and production of IFN-γ in splenocytes stimulated by rHSP90 was assayed by flow cytometry.

[5] = tested on: NK sensitive K562 cell line; assay: NK cell cytotoxicity of human PBMC, 51Cr-release against K562; assay type: cell-based; conditions: for dose response of NK cell activity: range 0.1 μM-100 μM, FIG. 28
Protocol: Ex vivo effects of test compounds on NK cells were evaluated on human peripheral blood mononuclear cells (PBMC). The NK cell cytotoxicity of healthy donors in the presence or absence of test compounds was measured in standard 4 hrs ^51Cr-release assay against NK sensitive K562 cell line in effector (PBMC) to target (K562) ratio 16:1. Test compounds were added at a concentration of 10^−7 mol/ml.
Testing of compounds 23, 24, 32, 33, 40 and 41 for their capacity to induce cell-mediated cytotoxicity of human eripheral blood mononuclear cells (PBMCs) is shown in FIGS. 27 and 28. All donors were healthy. […] The cytotoxicity of untreated controls (30.5%) was renormalized to 100%.

[6] = tested on: NK-sensitive YAC1 target cells; assay: NK cell-mediated cytotoxicity of spleen mononuclear cells, 51Cr-release against YAC1; conditions: FLV-inoculated mice, day 16, 18 h incubation with YAC1; FIG. 26
[7] = tested on: r-hsp90 (Candida albicans hsp90) specific IgG antibodies; assay: Proteoliposome vaccine against C. albicans hsp90: antibody (humoral) response, ELISA; assay type: in vivo, BALB/c mice; conditions: Experiment 12.2; liposomal compound (5%) + Ni-HSP90, boost day 14; FIG. 13
Protocol: as §1
Blood samples were collected from the tail vein into heparinised capillary PCV tubes. After centrifugation, the upper part of the tube, containing […] blood serum, was cut off, thrown into […] diluting solution and thoroughly shaken. Thus, a basic dilution of 1:33 was obtained. The pre-diluted sera were kept at −20° C. Blood samples were collected before the first immunization, 2 weeks thereafter and subsequently at weekly intervals up to the 4th week after the second immunisation. Specific IgG antibodies in blood serum samples were determined by the standard indirect ELISA procedure. The data obtained were processed statistically using the non-parametric Mann-Whitney U-test.
Proteoliposomes with muramyl glycopeptide derivatives were prepared as described above, but the boost was carried out already after 14 days. The liposomal vaccine composition was as for Experiment Set 1: 20 μg of rHSP90 antigen, 5% metallochelating lipid, 5% particular MT analogue, 90% phospolipids.
Controls: Aluminum hydroxide (AlOH) and Freund complete adjuvans (FCA) were used as positive controls. PBS with empty liposomes was used as negative control (control). Humoral response was tested at day 14 after vaccination (post priming) and at day 20 after vaccination (post booster). Antibody titres were wer assayed by ELISA.

[8] = tested on: Friend leukemia virus (FLV); assay: Friend leukemia virus infection: survival, TER-119+ cells, spleen
[9] = Survival after lethal irradiation (10 Gy); assay type: in vivo, mice (strain ICR); conditions: 200 nmol s.c. 24 h before 10 Gy; FIG. 37
Protocol: Preparations (200 nmol of active substance) were applied to mice (strain ICR, female, 3 months of age, 10 mice per group) by s.c. route 24 h before irradiation (radiation dose of 10 Gy from a ^60Co gamma-ray source at a dose rate of 0.285 Gy/min). PBS and empty liposome served as negative controls, free and liposomal muramyl dipeptide (MDP) served as positive controls.

[10] = tested on: GM-CFC progenitors in bone marrow; assay: GM-CFC recovery, test compounds after sub-lethal irradiation; assay type: in vivo, ICR/CD-1 mice; conditions: s.c. 100 nmol 24 h after 6 Gy; FIG. 36
Protocol: Institite of Cancer Research (ICR/CD-1) mice (female, age of 3 months, 3-4 per group) were stimulated by s.c. administration of test compounds (volume of 200 μl, 100 nmol per dose) 24 h before sublethal γ-irradiation (6 Gy, ^60Co γray source Chisostat, Chirana Ltd., Czech Republic, at a dose of 0.285 Gy/min.). Mice were sacrified at day 13 and recovery of GM-CFC in femour was assayed by counting of colonies (CFC) formed after cultivation in medium. Non-irradiated mice were used as control for normal GM-CFC count in femour. PBS and empty liposomes were used as controls for spontaneous recovery. Liposomal MDP was used as reference standard.
The following parameters of hemopoiesis were evaluated: • a) Blood leukocyte counts and bone marrow cellularity. Blood leukocytes (samples of blood drawn from an incision of the tail vein) and nucleated cell elements of the femoral bone marrow (femoral diaphyses flushed with saline) were estimated by means of Coulter Counter (Model ZN, Coulter Electronics). • b) Colony-forming cells in spleen. Endogenous spleen colony-forming units (E-CFUs) were measured on day 9 post the whole-body irradiation with 6.5 Gy (5 mice per group) according to Till and McCulloch. • c) GM-CFC progenitors in bone marrow. Femoral bone marrow cells were obtained from mice by flushing the femour with sterile IMDM medium. Harvested cells were calculated and diluted to 1.5×10^5 cells/ml and plated in triplicate in a semisolid environment created by plasma clot (Iscovess modification of Dulbecco's medium, 20% of fetal calf serum, 10% of colony-stimulating factor, 10% of citrate plasma, and CaCl2 1.5 mg/ml). The cultures were incubated for 7 days at 37° C. in 5% CO2. Colonies of at least 50 cells were scored at 40× magnification.
The method is exactly as described above except that the test compounds (volume of 200 μl, 100 nmol per dose) were administered 24 h after sublethal γ-irradiation (6 Gy).

[11] = tested on: granulocyte-macrophage progenitor cells (GM-CFC); assay: Colony stimulating activity (CSA) of serum on GM-CFC; assay type: in vivo, mouse; conditions: liposomal compounds; FIG. 32
Protocol: Determination of Colony stimulating activity (CSA) and co-stimulating activity (CoSA) in serum: Blood was taken at intervals from 5 to 48 h after injection of the test compounds, and the ability of the sera from treated mice to stimulate in vitro growth of colonies from granulocyte-macrophage progenitor cells (GM-CFC) was determined. CoSA was determined as the ability of tested compounds, sera of treated mice, or conditioned medium from cultures of adherent stromal cells to enhance the number of GM-CFC colonies induced by a sub-optimal concentration of rmIL-3 in the above-described GM-CFC assay. The concentration of rmIL-3 was adjusted to a value which yielded one third of the maximum number of colonies on a dose-dependent curve.

For `CCCCCCCCCCCCCCC(CCCCCCCCCCCCCC)C(=O)N[C@H]1[C@H](O[C@H]2[C@H](OCC(=O)N[C@@H](CC)C(=O)N[C@H](CCC(=O)O)C(N)=O)[C@@H](NC(C)=O)C(O)O[C@@H]2CO)O[C@H](CO)[C@@H](O)[C@@H]1O` (stereo partly drawn) [Compound 24, N-{2-O-[2-deoxy-2-(2-tetradecyl-hexadecanoylamino)-β-D-gluco-pyranosyl-(1→4)-2-acetamido-2,3-dideoxy-α-D-glucopyranosid-3-yl]glycoloyl}-L-α-aminobutanoyl-D-isoglutamine], the “Th1 stimulation (EAE)” value [1] was “strongest effect on Th1 stimulation”, the “+ΔTmax (Sum of ΔTmax)” value [2] was 0.7 °C and the “protective effect / survival rate in S. Enteritidis infection” value [3] was “good protective effects”. For the same molecule, the “Day 6 Intest.: clear/infected/dead” value [3] was 4/1/0, the “Day 6 Liver: clear/infected/dead” value [3] was 3/2/0 and the “Day 6 Lungs: clear/infected/dead” value [3] was 4/1/0. For the same molecule, the “Day 6 Spleen: clear/infected/dead” value [3] was 3/2/0, the “Day 12 Intest.: clear/infected/dead” value [3] was 3/1/1 and the “Day 12 Liver: clear/infected/dead” value [3] was 3/1/1. The “Day 12 Lungs: clear/infected/dead” value [3] was 4/0/1, the “Day 12 Spleen: clear/infected/dead” value [3] was 3/1/1 and the “cell-mediated response to r-hsp90 proteoliposomes” value [4] was “strong Th1-type responses”. For the same molecule, the “lag time to reach full NK stimulating activity” value ([5]; no vs 18 h pre-incubation) was “most pronounced”, the “dose response of NK cell activity” value [5] was “negative dose response” and the “NK cell activity (cell-mediated cytotoxicity of SMCs)” value [6] was “inhibitory effect”. For the same molecule, the “antibody response to r-hsp90 proteoliposomes” value [7] was “weak to non-existent antibody responses; also recorded: virtually no Th2-type response”, the “survival, late phase (days 55 and 59), long-term” value ([8]; 10 μmol i.p., non-liposomal, control 0%, FIG. 23, listed as substance 24) was 30% and the “survival, early phase (day 43)” value ([8]; 10 μmol i.p., non-liposomal, saline control 82%, FIG. 23) was “survival rate worse than control”. The “clonal expansion of TER-119+ erythroleukaemia cells in spleen” value ([8]; day 16, FIG. 24) was “pronounced opposite effect”, the “spleen size (weight)” value ([8]; day 16, FIG. 25) was “spleen size slightly lower than the control” and the “survival of lethally irradiated mice” value [9] was “smaller survival benefit”.

For `CCCCCCCCCCCCCCC(CCCCCCCCCCCCCC)C(=O)NCCCC[C@H](NC(=O)CC[C@@H](NC(=O)[C@H](CC)NC(=O)CO[C@H]1[C@H](O)[C@@H](CO)OC(O)[C@@H]1NC(C)=O)C(N)=O)C(=O)O` (stereo partly drawn) [Compound 33, N-[2-O-(2-Acetamido-2,3-dideoxy-α-D-glucopyranosid-3-yl)-glycoloyl]-L-α-aminobutanoyl-D-isoglutaminyl-L-lysine(2-tetradecylhexadecanoyl)], the “+ΔTmax (Sum of ΔTmax)” value [2] was 0.4 °C, the “protective effect / survival rate in S. Enteritidis infection” value [3] was “good protective effects” and the “Day 6 Intest.: clear/infected/dead” value [3] was 5/0/0. The “Day 6 Liver: clear/infected/dead” value [3] was 5/0/0, the “Day 6 Lungs: clear/infected/dead” value [3] was 5/0/0 and the “Day 6 Spleen: clear/infected/dead” value [3] was 2/3/0. The “Day 12 Intest.: clear/infected/dead” value [3] was 2/2/1, the “Day 12 Liver: clear/infected/dead” value [3] was 1/3/1 and the “Day 12 Lungs: clear/infected/dead” value [3] was 2/2/1. For the same molecule, the “Day 12 Spleen: clear/infected/dead” value [3] was 1/3/1, the “cell-mediated response to r-hsp90 proteoliposomes” value [4] was “good results” and the “dose response of NK cell activity” value [5] was “positive dose response”. For the same molecule, the “NK cell activity (cell-mediated cytotoxicity of SMCs)” value [6] was “partially 33, had an inhibitory effect”, the “GM-CFC progenitor cells in bone marrow” value [10] was “strongest performers” and the “antibody response to r-hsp90 proteoliposomes” value [7] was “strong and comparable to AlOH”. The “GM-CFC stimulating activity (CSA) in serum” value [11] was “no effect”.
